From PubChem BioAssay AID588715 (Vanderbilt Specialized Chemistry Center, 2011)
Activity calls are given as the source filed them. No rule for the calls is given here.

Target: Metabotropic glutamate receptor 5 (Rattus norvegicus) (UniProt P31424)
Assay: potentiators of rat mGlu5 glutamate response – cell-based, HEK293A, calcium mobilization, SAR follow-up (AID 588715)
Conditions: HEK293A rat mGluR5, Ca2+ mobilization fluorescence, PAM

Chain of Metabotropic glutamate receptor 5 (Rattus norvegicus) (P31424 whole entry, looked up): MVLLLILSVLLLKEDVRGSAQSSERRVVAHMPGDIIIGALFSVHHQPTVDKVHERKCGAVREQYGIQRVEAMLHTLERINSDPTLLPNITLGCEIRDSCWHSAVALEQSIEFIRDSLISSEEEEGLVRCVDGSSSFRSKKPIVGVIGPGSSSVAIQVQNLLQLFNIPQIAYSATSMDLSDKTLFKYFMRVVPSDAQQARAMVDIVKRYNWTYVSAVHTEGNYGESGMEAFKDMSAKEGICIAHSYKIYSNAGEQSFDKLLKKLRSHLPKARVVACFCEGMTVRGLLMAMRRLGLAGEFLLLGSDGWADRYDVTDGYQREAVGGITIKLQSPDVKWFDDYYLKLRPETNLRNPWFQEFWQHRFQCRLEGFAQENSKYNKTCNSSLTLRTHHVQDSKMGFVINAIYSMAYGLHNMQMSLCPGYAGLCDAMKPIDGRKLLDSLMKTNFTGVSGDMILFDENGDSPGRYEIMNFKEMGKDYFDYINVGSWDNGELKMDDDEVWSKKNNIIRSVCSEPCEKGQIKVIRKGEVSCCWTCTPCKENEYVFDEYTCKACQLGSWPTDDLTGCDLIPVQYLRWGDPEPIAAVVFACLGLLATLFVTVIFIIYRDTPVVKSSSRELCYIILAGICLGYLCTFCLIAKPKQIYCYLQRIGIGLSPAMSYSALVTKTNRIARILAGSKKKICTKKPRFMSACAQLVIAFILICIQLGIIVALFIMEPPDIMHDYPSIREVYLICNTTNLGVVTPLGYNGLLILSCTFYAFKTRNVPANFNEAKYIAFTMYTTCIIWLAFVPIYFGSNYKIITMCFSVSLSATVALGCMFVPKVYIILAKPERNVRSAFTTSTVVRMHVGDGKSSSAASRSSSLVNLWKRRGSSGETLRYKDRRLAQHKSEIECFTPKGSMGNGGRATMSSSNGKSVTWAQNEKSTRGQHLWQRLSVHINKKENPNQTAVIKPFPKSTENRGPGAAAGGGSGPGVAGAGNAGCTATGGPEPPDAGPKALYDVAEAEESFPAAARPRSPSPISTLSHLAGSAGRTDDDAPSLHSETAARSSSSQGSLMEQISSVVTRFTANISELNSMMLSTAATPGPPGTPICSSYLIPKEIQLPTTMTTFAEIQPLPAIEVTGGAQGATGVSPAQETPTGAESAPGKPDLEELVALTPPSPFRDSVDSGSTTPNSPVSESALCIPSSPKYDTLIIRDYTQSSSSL

**Q.** `O=C(NC1CC(O)C1)c1ccc(C#Cc2cccc(F)c2)cn1` (stereo not drawn) was tested. Which EC50 did it give?
**A.** 193 nM

**Q.** Which EC50 does the source give for `O=C(c1ccc(C#Cc2ccccc2)cc1)N1CCC(O)CC1` here?
**A.** 523 nM

**Q.** Which EC50 does the source give for `O=C(NC1CCC1)c1ccc(C#CC2CCCC2)cn1` here?
**A.** 265 nM

**Q.** Which EC50 does the source give for `C[C@@H](NC(=O)c1ccc(C#Cc2cccc(F)c2)nc1)C(C)(C)O` here?
**A.** 90 nM

**Q.** `CC(C)(C)NC(=O)c1ccc(C#Cc2cccc(F)c2)nc1` was tested. Which EC50 did it give?
**A.** 35 nM

**Q.** For `CC(C)(CO)NC(=O)c1ccc(C#Cc2cccc(F)c2)nc1`, which EC50 is on record?
**A.** 213 nM

**Q.** For `O=C(NC1CCC1)c1ccc(C#Cc2cccc(F)c2)cn1`, which EC50 is on record?
**A.** 12 nM

**Q.** How did the EC50 turn out when `CC(C)(C)NC(=O)c1ccc(C#Cc2cccc(F)c2)cn1` was run?
**A.** 13 nM

**Q.** `C[C@@H](NC(=O)c1ccc(C#CC2CC2)cn1)C(C)(C)O` was tested. Which EC50 did it give?
**A.** 1580 nM

**Q.** Which EC50 does the source give for `O=C(NC1CCC1)c1ccc(C#Cc2cccc(F)c2)c[n+]1[O-]` here?
**A.** 25 nM

**Q.** Which EC50 does the source give for `C[C@@H](NC(=O)c1ccc(C#Cc2cccc(F)c2)cn1)C(C)(C)O` here?
**A.** 8 nM

**Q.** Which EC50 does the source give for `O=C(c1ccc(C#Cc2cccc(F)c2)nc1)N1CCC(O)CC1` here?
**A.** 545 nM

**Q.** Which EC50 does the source give for `CC(C)(CO)NC(=O)c1ccc(C#Cc2cccc(F)c2)cn1` here?
**A.** 6 nM

**Q.** With `O=C(NC1CCC1)c1ccc(C#Cc2cccc(F)c2)nc1` as the molecule, how does the EC50 read?
**A.** 71 nM

**Q.** Which EC50 does the source give for `O=C(COCc1ccncc1)N1CCN(c2ccc(F)cc2Cl)CC1` here?
**A.** 2280 nM

**Q.** How did the EC50 turn out when `CC(CO)(CO)NC(=O)c1ccc(C#Cc2cccc(F)c2)cn1` was run?
**A.** 409 nM

**Q.** Which EC50 does the source give for `O=C(NC1CCC1)c1ccc(C#CC2CC2)cn1` here?
**A.** 1280 nM

**Q.** For `O=C(NC1COC1)c1ccc(C#Cc2cccc(F)c2)nc1`, which EC50 is on record?
**A.** 4820 nM

Same assay, conditions: HEK293A rat mGluR5, Ca2+ mobilization fluorescence, PAM; at 29.8 µM (top of the series)

**Q.** `O=C(NC1CC(O)C1)c1ccc(C#CC2CC2)cc1` (stereo not drawn) was tested. Which “percent of glutamate ECmax” value did it give?
**A.** inactive

**Q.** For `O=C(c1ccc(C#Cc2cccc(F)c2)cn1)N1CCC(O)CC1`, which “percent of glutamate ECmax” value is on record?
**A.** inactive

**Q.** With `CC1(NC(=O)c2ccc(C#Cc3cccc(F)c3)nc2)COC1` as the molecule, how does the percent of glutamate ECmax read?
**A.** 40

**Q.** With `CC(C)(CO)NC(=O)c1ccc(C#CC2CC2)nc1` as the molecule, how does the “percent of glutamate ECmax” value read?
**A.** inactive

**Q.** For `C[C@@H](NC(=O)c1ccc(C#CC2CC2)nc1)C(C)(C)O`, which “percent of glutamate ECmax” value is on record?
**A.** inactive

**Q.** For `O=C(NC1CCC1)c1ccc(C#CC2CC2)c[n+]1[O-]`, which “percent of glutamate ECmax” value is on record?
**A.** inactive

**Q.** How did the percent of glutamate ECmax turn out when `C[C@@H](NC(=O)c1ccc(C#CC2CC2)cc1)C(C)(C)O` was run?
**A.** 45

**Q.** How did the “percent of glutamate ECmax” value turn out when `O=C(NC1CC(O)C1)c1ccc(C#CC2CC2)cn1` (stereo not drawn) was run?
**A.** inactive

**Q.** `CC1(NC(=O)c2ccc(C#CC3CC3)cn2)COC1` was tested. Which “percent of glutamate ECmax” value did it give?
**A.** inactive

**Q.** How did the “percent of glutamate ECmax” value turn out when `CC1(NC(=O)c2ccc(C#CC3CC3)nc2)COC1` was run?
**A.** inactive

**Q.** How did the “percent of glutamate ECmax” value turn out when `O=C(c1ccc(C#Cc2cccc(F)c2)cn1)N1CCCCC1` was run?
**A.** inactive

**Q.** `O=C(O)c1ccc(C#Cc2cccc(F)c2)cn1` was tested. Which “percent of glutamate ECmax” value did it give?
**A.** inactive

**Q.** For `CC(C)(CO)NC(=O)c1ccc(C#CC2CC2)cc1`, which “percent of glutamate ECmax” value is on record?
**A.** inactive

**Q.** Which “percent of glutamate ECmax” value does the source give for `CC1(NC(=O)c2ccc(C#CC3CC3)cc2)COC1` here?
**A.** inactive

**Q.** Which “percent of glutamate ECmax” value does the source give for `CC(C)(CO)NC(=O)c1ccc(C#CC2CC2)cn1` here?
**A.** inactive
